Where a name gives a salt, the structure may show the parent alone. Read-outs that look alike come from different tables or passages of the source.
Tests used:
TBK1 = molecular target: T1, TBK1 (Homo sapiens, UniProt Q9UHD2); test: TBK Biochemical Assay; conditions: read-out: TBK1 IC50
T1 sequence (Q9UHD2 1-729): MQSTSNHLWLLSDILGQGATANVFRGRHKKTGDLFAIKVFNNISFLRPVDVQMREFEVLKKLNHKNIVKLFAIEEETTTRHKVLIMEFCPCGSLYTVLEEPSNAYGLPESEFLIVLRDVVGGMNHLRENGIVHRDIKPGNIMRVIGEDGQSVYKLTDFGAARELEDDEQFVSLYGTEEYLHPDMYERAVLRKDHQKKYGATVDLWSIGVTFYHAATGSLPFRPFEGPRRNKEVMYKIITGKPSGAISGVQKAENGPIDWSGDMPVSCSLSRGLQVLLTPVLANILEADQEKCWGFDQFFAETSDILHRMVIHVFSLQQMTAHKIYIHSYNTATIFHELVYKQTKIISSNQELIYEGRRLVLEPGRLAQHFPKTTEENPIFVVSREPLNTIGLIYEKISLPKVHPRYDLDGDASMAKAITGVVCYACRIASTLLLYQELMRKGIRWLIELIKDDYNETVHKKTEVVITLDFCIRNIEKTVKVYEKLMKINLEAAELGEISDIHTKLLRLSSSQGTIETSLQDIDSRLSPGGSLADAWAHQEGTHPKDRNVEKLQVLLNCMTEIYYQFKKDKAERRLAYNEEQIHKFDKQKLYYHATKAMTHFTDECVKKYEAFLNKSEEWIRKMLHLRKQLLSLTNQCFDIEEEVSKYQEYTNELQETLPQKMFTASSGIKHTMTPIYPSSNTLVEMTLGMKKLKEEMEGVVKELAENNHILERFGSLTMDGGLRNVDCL
Procedure, shortened: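 Caliper LabChip mobility-shift readout of substrate and product after 90 min of TBK1 reaction at 25° C and stop-buffer addition. Compounds tested in 1:4 serial dilution over 10 points from 30 uM final at 1% DMSO; staurosporine 10 uM final defines full inhibition.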

IKKε = molecular target: T2, IKKε (Homo sapiens, UniProt Q14164); test: IKKe Biochemical Assay; conditions: read-out: IKKε IC50
T2 sequence (Q14164 1-716): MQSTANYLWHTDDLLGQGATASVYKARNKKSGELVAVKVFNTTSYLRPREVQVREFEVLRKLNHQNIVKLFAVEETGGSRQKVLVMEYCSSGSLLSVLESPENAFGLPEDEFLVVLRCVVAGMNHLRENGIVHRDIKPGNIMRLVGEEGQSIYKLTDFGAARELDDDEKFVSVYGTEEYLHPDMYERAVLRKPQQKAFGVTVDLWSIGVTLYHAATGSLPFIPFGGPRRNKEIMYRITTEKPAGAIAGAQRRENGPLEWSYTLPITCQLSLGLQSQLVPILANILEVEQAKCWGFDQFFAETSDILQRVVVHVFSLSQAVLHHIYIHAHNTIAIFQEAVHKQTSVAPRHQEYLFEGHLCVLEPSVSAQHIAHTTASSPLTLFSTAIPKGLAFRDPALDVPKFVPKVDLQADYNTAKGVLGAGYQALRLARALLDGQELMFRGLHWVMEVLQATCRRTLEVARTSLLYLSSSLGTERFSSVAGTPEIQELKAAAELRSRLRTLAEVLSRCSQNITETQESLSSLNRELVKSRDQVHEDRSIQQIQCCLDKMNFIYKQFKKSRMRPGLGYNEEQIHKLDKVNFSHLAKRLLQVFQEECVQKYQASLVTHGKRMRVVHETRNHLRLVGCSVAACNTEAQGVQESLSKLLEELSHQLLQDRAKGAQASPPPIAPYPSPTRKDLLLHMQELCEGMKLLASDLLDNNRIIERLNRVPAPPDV
Procedure, shortened: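 Activity was measured as mobility-shift separation of phosphorylated from unphosphorylated substrate on a LabChip EZ Reader. Compound was titrated from 30 uM final in 10 points, 1:4 steps, with 1% DMSO, and enzyme plus substrate reacted 90 min at 25° C before stop buffer. Control wells held 10 uM staurosporine.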

[1] = test system: phosphorylation of the IRF-3 protein in MDA-MB-468 cells; test: pIRF3 immunocytochemistry cell based assay; conditions: Homo sapiens
Procedure, shortened: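 After 2 h stimulation with Poly(I:C) (10 ug/ml), following 1 h compound pre-treatment (10-point, 3-fold dilution, top 10 uM), MDA-MB-468 cells were fixed and stained with anti-pIRF3 antibody. pIRF3 fluorescence was normalized to PI staining or cell count on an Acumen cytometer. IC50 curves were derived from this.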

[2] = MDA-MB-468 cells, Poly(I:C) stimulation, read-out: pIRF3 IC50
[3] = MDA-MB-468, read-out: pIRF3 IC50

SMILES	IC50 (TBK1) [nM]	IC50 (IKKε) [nM]	IC50 [1, 2] [nM]	IC50 [1, 3] [nM]
COc1cc(C(=O)N(C)C)ccc1-c1cc2ncc(F)c(-c3ccc(NC4CCOCC4)c(C#N)c3)c2o1 [Compound 299, 4-(7-[3-cyano-4-[(oxan-4-yl)amino]phenyl]-6-fluorofuro[3,2-b]pyridin-2-yl)-3-methoxy-N,N-dimethylbenzamide]	< 100	< 100	100 to 1000	
CN(C)C(=O)c1ccc(-c2cc3ncc(F)c(-c4ccc(NC5CCOCC5)c(C#N)c4)c3o2)c(F)c1 [Compound 300, 4-(7-[3-cyano-4-[(oxan-4-yl)amino]phenyl]-6-fluorofuro[3,2-b]pyridin-2-yl)-3-fluoro-N,N-dimethylbenzamide]	100 to 1000	100 to 1000	1000 to 5000	
CN(C)C(=O)c1ccc(-c2cc3ncc(F)c(-c4ccc(OC5CCOCC5)c(C#N)c4)c3o2)c(F)c1 [Compound 301, 4-[7-[3-cyano-4-(oxan-4-yloxy)phenyl]-6-fluorofuro[3,2-b]pyridin-2-yl]-3-fluoro-N,N-dimethylbenzamide]	< 100	< 100	1000 to 5000	
CN(CCO)C(=O)c1ccc(-c2cc3ncc(F)c(-c4ccc(OC5CCOCC5)c(C#N)c4)c3o2)c(F)c1 [Compound 302, 4-[7-[3-cyano-4-(oxan-4-yloxy)phenyl]-6-fluorofuro[3,2-b]pyridin-2-yl]-3-fluoro-N-(2-hydroxyethyl)-N-methylbenzamide]	< 100	< 100	100 to 1000	
CN(CCO)C(=O)c1ccc(-c2cc3ncc(F)c(-c4ccc(NC5CCOCC5)c(C#N)c4)c3o2)c(F)c1 [Compound 303, 4-(7-[3-cyano-4-[(oxan-4-yl)amino]phenyl]-6-fluorofuro[3,2-b]pyridin-2-yl)-3-fluoro-N-(2-hydroxyethyl)-N-methylbenzamide]	100 to 1000	100 to 1000	100 to 1000	
COc1cc(C(=O)N(C)CCO)ccc1-c1cc2ncc(Cl)c(-c3ccc(OC4CCOCC4)c(C#N)c3)c2o1 [Compound 304, 4-[6-chloro-7-[3-cyano-4-(oxan-4-yloxy)phenyl]furo[3,2-b]pyridin-2-yl]-N-(2-hydroxyethyl)-3-methoxy-N-methylbenzamide]	100 to 1000	100 to 1000	1000 to 5000	
COc1nc(C(=O)N(C)C)ccc1-c1cc2nccc(-c3ccc(N4CC[C@@H](F)C4)c(C#N)c3)c2o1 [Compound 313, 5-{7-[3-Cyano-4-((R)-3-fluoro-pyrrolidin-1-yl)-phenyl]-furo[3,2-b]pyridin-2-yl}-6-methoxy-pyridine-2-carboxylic acid dimethylamide]	< 100	< 100	100 to 1000	
COc1nc(C(=O)N(C)C)ccc1-c1cc2nccc(-c3ccc(N4CC[C@H](F)C4)c(C#N)c3)c2o1 [Compound 314, 5-{7-[3-Cyano-4-((S)-3-fluoro-pyrrolidin-1-yl)-phenyl]-furo[3,2-b]pyridin-2-yl}-6-methoxy-pyridine-2-carboxylic acid dimethylamide]	< 100	< 100	100 to 1000	
COc1cc(C(=O)N(C)C)cnc1-c1cc2nccc(-c3ccc(NC4CCOCC4)c(C#N)n3)c2o1 [Compound 315, 6-(7-[6-cyano-5-[(oxan-4-yl)amino]pyridin-2-yl]furo[3,2-b]pyridin-2-yl)-5-methoxy-N,N-dimethylpyridine-3-carboxamide hydrochloride]	< 100	< 100		100 to 1000
COc1cc(C(=O)N(C)C)cnc1-c1cc2nccc(-c3ccc(OC4CCOCC4)c(C#N)n3)c2o1 [Compound 316, 6-[7-[6-cyano-5-(oxan-4-yloxy)pyridin-2-yl]furo[3,2-b]pyridin-2-yl]-5-methoxy-N,N-dimethylpyridine-3-carboxamide]	< 100	< 100	100 to 1000	
COc1cc(C(=O)N(C)C)cnc1-c1cc2ncc(F)c(-c3ccc(OC4CCOCC4)c(C#N)c3)c2o1 [Compound 317, 6-(7-(3-cyano-4-(tetrahydro-2H-pyran-4-yloxy)phenyl)-6-fluorofuro[3,2-b]pyridin-2-yl)-5-methoxy-N,N-dimethylnicotinamide]	< 100	< 100	100 to 1000	
COc1cc(C(=O)N(C)CCO)cnc1-c1cc2nccc(-c3ccc(NC4CCOCC4)c(C#N)c3)c2o1 [Compound 318, 6-(7-(3-cyano-4-(tetrahydro-2H-pyran-4-ylamino)phenyl)furo[3,2-b]pyridin-2-yl)-N-(2-hydroxyethyl)-5-methoxy-N-methylnicotinamide]	< 100	< 100	100 to 1000	
COc1cc(C(=O)N(C)C)cnc1-c1cc2ncc(C)c(-c3ccc(NC4CCOCC4)c(C#N)n3)c2o1 [Compound 322, 6-(7-(6-cyano-5-(tetrahydro-2H-pyran-4-ylamino)pyridin-2-yl)-6-methylfuro[3,2-b]pyridin-2-yl)-5-methoxy-N,N-dimethylnicotinamide]	100 to 1000	1000 to 5000	1000 to 5000	
COc1cc(C(=O)N(C)C)ccc1-c1cc2nccc(-c3cnc(NC4CCOCC4)c(C#N)c3)c2o1 [Compound 324, 4-(7-(5-cyano-6-(tetrahydro-2H-pyran-4-ylamino)pyridin-3-yl)furo[3,2-b]pyridin-2-yl)-3-methoxy-N,N-dimethylbenzamide]	< 100	< 100	100 to 1000	
COc1cc(C(=O)N(C)C)ncc1-c1cc2nccc(-c3ccc(NC4CCOCC4)c(C#N)c3)c2o1 [Compound 325, 5-(7-[3-cyano-4-[(oxan-4-yl)amino]phenyl]furo[3,2-b]pyridin-2-yl)-4-methoxy-N,N-dimethylpyridine-2-carboxamide]	< 100	< 100		100 to 1000
COc1cc(C(=O)N(C)C)ncc1-c1cc2nccc(-c3ccc(OC4CCOCC4)c(C#N)c3)c2o1 [Compound 326, 5-[7-[3-cyano-4-(oxan-4-yloxy)phenyl]furo[3,2-b]pyridin-2-yl]-4-methoxy-N,N-dimethylpyridine-2-carboxamide]	< 100	< 100	< 100	
COc1cc(C(=O)N(C)CCO)cnc1-c1cc2nccc(-c3ccc(OC4CCOCC4)c(C#N)n3)c2o1 [Compound 327, 6-[7-[6-cyano-5-(oxan-4-yloxy)pyridin-2-yl]furo[3,2-b]pyridin-2-yl]-N-(2-hydroxyethyl)-5-methoxy-N-methylpyridine-3-carboxamide hydrochloride]	< 100	< 100		< 100
COc1cc(C(=O)N(C)CCO)cnc1-c1cc2nccc(-c3ccc(OC4CCOCC4)c(C#N)c3)c2o1 [Compound 328, 6-[7-[3-cyano-4-(oxan-4-yloxy)phenyl]furo[3,2-b]pyridin-2-yl]-N-(2-hydroxyethyl)-5-methoxy-N-methylpyridine-3-carboxamide]	< 100	< 100	< 100	
COc1cc(C(=O)N(C)C)cnc1-c1cc2ncc(F)c(-c3ccc(NC4CCOCC4)c(C#N)c3)c2o1 [Compound 329, 6-(7-[3-cyano-4-[(oxan-4-yl)amino]phenyl]-6-fluorofuro[3,2-b]pyridin-2-yl)-5-methoxy-N,N-dimethylpyridine-3-carboxamide]	< 100	100 to 1000	100 to 1000	

From patent publication US10428080B2, “TBK/IKK inhibitor compounds and uses thereof” (Merck Patent GmbH, priority 2015, dated 2019)
